Reference: paper PMC7211195 (Investigational New Drugs, 2019)
Like-named read-outs stand apart in the source and are kept apart here.

Test: Lapatinib pharmacokinetics and uptake in rat brain tissue (BT);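 as to BT corr (BT homogenate corrected), single rat: brain concentration corrected for residual brain blood by the Fridén method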;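 as to BT corr (BT homogenate), single rat: brain concentration corrected for residual brain blood by the Fridén method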
Assay type: in vivo, rats
Settings: male, Wistar, rat; for AUC(0-inf) / AUC(0-t) / Cmax / Tmax / k el: brain tissue
Experimental: This study was conducted on rats, which are a promising model to predict P-gp-based drug-drug interactions at the human BBB [15]. The animals were allowed to acclimate for one week before the beginning of the experiments. Adult male Wistar-strain rats (weight 470–525 g) were used in the study. The animals were maintained under standard breeding conditions with a 12/12 h light-dark cycle (lights on at 6.00 a.m., lights off at 6.00 p.m.) at constant room temperature (23 ± 2 °C), relative humidity (55 ± 10%) and ad libitum access to food and water. The experimental protocol for this study was reviewed and approved by the Local Ethics Committee. To obtain consistent data, the study was based on the required minimum number of animals and observation time. […] Three rats were used at each time point (n = 3). In total, the research was conducted on 66 animals (n = 33 in the experimental group and n = 33 in the control group).
Elacridar was freshly dissolved in a vehicle at an initial concentration of 20 mg/mL. […] A volume of 80 μL of blood was collected from each rat by cutting off a piece of its tail. The blood samples were collected into heparinized test tubes at the following time points: […], and they were immediately centrifuged at 2880 g for 10 min at 4 °C. The anaesthetized rats (anaesthetized by intramuscular administration of 50 mg/kg ketamine and 10 mg/kg xylazine) were prepared for cisterna magna puncture. The hair over the puncture was removed and the skin was disinfected with alcohol. The animals were placed in a recumbent position with an elevated rear part of the body. The animals’ heads were slightly flexed and immobilized with the operator’s left hand. The space between the occiput rostrally and the atlas (C1) of the spinal column caudally was gently palpated with the left thumb. A 0.7 × 20 G needle with polyethylene tubing (Terumo Poland, Warsaw, Poland) was gently inserted at an approximate angle of 80–90° through the skin with the operator’s right hand into the midsagittal region. The moment that dura mater perforation was perceptible, a small amount of CSF was found in the needle tubing. To sample additional CSF, a 1 mL insulin syringe (Becton Dickinson, Warsaw, Poland) was used to collect 80–120 μL of CSF by very gentle aspiration. Only clear CSF was collected for further analysis. […] The animals’ brains were immediately dissected, washed in 0.9% NaCl and divided along the longitudinal axis. One of the brain hemispheres was again rinsed three times with 5 mL of 0.9% NaCl, weighed and homogenized with 0.9% NaCl (4 mL per 1 g of BT) in an Ultra-Turrax homogenizer (Witko, Łódź, Poland). The homogenate was then centrifuged at 4500 g for 10 min. All samples of the rat BP, CSF, and BT homogenate supernatant were stored at −80 °C until analysis.
The chromatographic analysis was conducted using a 1260 Infinity system (Agilent Technologies, Santa Clara, USA) equipped with a Kinetex® C18 column (50 × 4.6 mm, 2.6 μm, Phenomenex, Torrance, USA), which was maintained at 35 °C. The mobile phase consisted of 0.1% formic acid (v/v) in water with 5 mM ammonium formate (solvent A) and acetonitrile with 10% phase A (v/v, solvent B). The analyte and internal standard (IS, erlotinib) were eluted using a gradient run of 10 min as follows: 95% A at 0–2 min; 95%–5% A at 2–4 min; 5% A at 4–5 min; 5%–95% A at 5–6 min; 95% A at 6–10 min. The flow rate and injection volume were set at 0.7 mL/min and 10 μL, respectively. The needle was washed for 30 s in a mixture of acetonitrile, methanol, isopropanol, water, and formic acid (50:20:15:15:0.25, v/v/v/v/v).

[1] = brain tissue homogenate, oral, lapatinib 100 mg/kg + elacridar, read-out: BT corr (BT homogenate), S
[2] = brain tissue homogenate, oral, lapatinib 100 mg/kg + elacridar, read-out: BT corr (BT homogenate), single rat
[3] = brain tissue homogenate, po, 100 mg/kg, lapatinib p.o. 100 mg/kg alone, read-out: BT corr (BT homogenate corrected), S
[4] = brain tissue homogenate, po, 100 mg/kg, lapatinib p.o. 100 mg/kg alone, read-out: BT corr (BT homogenate corrected), single rat
[5] = brain tissue homogenate, po, 100 mg/kg, lapatinib p.o. 100 mg/kg alone, read-out: Clapatinib in BT, S (medium value)
[6] = brain tissue homogenate, po, 100 mg/kg, lapatinib p.o. 100 mg/kg alone, read-out: Clapatinib in BT, single rat
[7] = brain, oral, lapatinib 100 mg/kg + elacridar, read-out: BT corr (BT homogenate), single rat
[8] = brain, oral, lapatinib 100 mg/kg + elacridar, read-out: Clapatinib in BT, S
[9] = brain, oral, lapatinib 100 mg/kg + elacridar, read-out: Clapatinib in BT, single rat
[10] = brain, po, 100 mg/kg, lapatinib 100 mg/kg oral + 5 mg/kg elacridar (IE+L)
[11] = brain, po, 100 mg/kg, lapatinib 100 mg/kg oral alone (IIL)

Compound: CS(=O)(=O)CCNCc1ccc(-c2ccc3ncnc(Nc4ccc(OCc5cccc(F)c5)c(Cl)c4)c3c2)o1 [lapatinib, N-{3-Chloro-4-[(3-fluorobenzyl)oxy]phenyl}-6-[5-({[2-(methylsulfonyl)ethyl]amino}methyl)-2-furyl]-4-quinazolinamine]
- concentration at 2 h [1]: 71.3 ng/mL
- concentration at 3 h [1]: 198 ng/mL
- concentration at 3 h [2]: 170 ng/mL
- concentration at 4 h [1]: 85 ng/mL
- concentration at 4 h [2]: 91.9 ng/mL
- concentration at 6 h [1]: 85.8 ng/mL
- concentration at 6 h [2]: 87.3 ng/mL
- concentration at 8 h [1]: 85 ng/mL
- concentration at 8 h [2]: 91.5 ng/mL
- concentration at 12 h [1]: 54.4 ng/mL
- concentration at 12 h [2]: 63.6 ng/mL
- concentration at 24 h [1]: 44.7 ng/mL
- concentration at 24 h [2]: 52.7 ng/mL
- concentration at 0.25 h [3]: 27.9 ng/mL
- concentration at 0.25 h [4]: 22.5 ng/mL
- concentration at 0.25 h [5]: 34.3 ng/mL
- concentration at 0.25 h [6]: 27.7 ng/mL
- concentration at 0.5 h [3]: 31.5 ng/mL
- concentration at 0.5 h [4]: 24 ng/mL
- concentration at 0.5 h [5]: 44.9 ng/mL
- concentration at 0.5 h [6]: 36.2 ng/mL
- concentration at 1 h [3]: 55.5 ng/mL
- concentration at 1 h [4]: 48.1 ng/mL
- concentration at 1 h [5]: 76 ng/mL
- concentration at 1 h [6]: 66.5 ng/mL
- concentration at 2 h [3]: 41.4 ng/mL
- concentration at 2 h [4]: 30.1 ng/mL
- concentration at 2 h [5]: 63.7 ng/mL
- concentration at 2 h [6]: 49.8 ng/mL
- concentration at 3 h [3]: 111 ng/mL
- concentration at 3 h [4]: 139 ng/mL
- concentration at 3 h [5]: 134 ng/mL
- concentration at 3 h [6]: 115 ng/mL
- concentration at 4 h [3]: 115 ng/mL
- concentration at 4 h [4]: 94.2 ng/mL
- concentration at 4 h [5]: 147 ng/mL
- concentration at 4 h [6]: 133 ng/mL
- concentration at 6 h [3]: 81.9 ng/mL
- concentration at 6 h [5]: 101 ng/mL
- concentration at 6 h [6]: 131 ng/mL
- concentration at 8 h [3]: 66.2 ng/mL
- concentration at 8 h [4]: 87.5 ng/mL
- concentration at 8 h [5]: 85.5 ng/mL
- concentration at 8 h [6]: 108 ng/mL
- concentration at 12 h [5]: 59.6 ng/mL
- concentration at 0.25 h [7]: 30.7 ng/mL
- concentration at 0.25 h [8]: 40.8 ng/mL
- concentration at 0.25 h [9]: 37.6 ng/mL
- concentration at 0.5 h [7]: 45.2 ng/mL
- concentration at 0.5 h [8]: 58.8 ng/mL
- concentration at 0.5 h [9]: 62 ng/mL
- concentration at 1 h [8]: 98.6 ng/mL
- concentration at 1 h [9]: 95.2 ng/mL
- concentration at 2 h [8]: 102 ng/mL
- concentration at 3 h [8]: 221 ng/mL
- concentration at 3 h [9]: 198 ng/mL
- concentration at 4 h [8]: 97.6 ng/mL
- concentration at 4 h [9]: 107 ng/mL
- concentration at 6 h [8]: 98.7 ng/mL
- concentration at 6 h [9]: 100 ng/mL
- concentration at 8 h [8]: 102 ng/mL
- concentration at 8 h [9]: 98.5 ng/mL
- concentration at 12 h [9]: 86.5 ng/mL
- concentration at 24 h [8]: 56.9 ng/mL
- concentration at 24 h [9]: 65.5 ng/mL
- AUC(0-inf) [10]: 2520 ± 611 ng·h/mL
- AUC(0-t) [10]: 1610 ± 131 ng·h/mL
- Cmax [10]: 198 ± 39 ng/mL
- Tmax [10]: 3 h
- k el [10]: 1.39e-05 s⁻¹
- AUC(0-inf) [11]: 1350 ± 712 ng·h/mL
- AUC(0-t) [11]: 836 ± 21.2 ng·h/mL
- Cmax [11]: 128 ± 16.4 ng/mL
- Tmax [11]: 4.5 ± 2.12 h
- k el [11]: 6.94e-05 s⁻¹
- concentration at 12 h (brain, po, 100 mg/kg, lapatinib p.o. 100 mg/kg alone, read-out: BT corr (BT homogenate corrected), S): 44.5 ng/mL
